The target in test [1] is cPLA2 (Homo sapiens, UniProt P47712). The settings on record: 293 T cells transfected with Flag-tagged mutants. The method, then: (§1) DARTS assay. Drug affinity responsive target stability (DARTS) assay was performed based on previously reported methods^4. In brief, cell lysate was extracted by M-PER™ Mammalian Protein Extraction Reagent (78501, Thermo Fisher), briefly centrifuged, and mixed with drugs or DMSO for 1 hour on a rotator. Pronase (P5147, Sigma-Aldrich) was added in the mixture for 15 minutes at room temperature. Digestion was stopped by 10 minute incubation with protease inhibitor cocktail on ice. Samples were boiled in SDS loading buffer for SDS-PAGE and Western blot.
cPLA2 (Homo sapiens, UniProt P47712), sequence (P47712 1-479): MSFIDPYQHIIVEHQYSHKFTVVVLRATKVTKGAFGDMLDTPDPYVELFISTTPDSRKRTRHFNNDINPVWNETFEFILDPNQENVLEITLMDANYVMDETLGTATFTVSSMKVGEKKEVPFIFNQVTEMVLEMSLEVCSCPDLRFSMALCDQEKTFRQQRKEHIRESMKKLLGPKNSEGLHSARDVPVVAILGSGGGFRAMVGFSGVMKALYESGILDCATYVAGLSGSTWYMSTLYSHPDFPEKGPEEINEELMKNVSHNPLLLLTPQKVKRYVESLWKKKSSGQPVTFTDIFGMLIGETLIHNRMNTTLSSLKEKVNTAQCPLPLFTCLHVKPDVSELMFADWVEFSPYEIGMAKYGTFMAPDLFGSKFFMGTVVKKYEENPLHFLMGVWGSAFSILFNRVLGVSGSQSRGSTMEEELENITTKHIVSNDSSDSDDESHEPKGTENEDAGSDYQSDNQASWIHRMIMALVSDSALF
(§2) Site-directed mutagenesis.
(§3) Construction of plasmids. The construction of cPLA2 mutant plasmids was based on serial C-terminal and N-terminal deletion of the amino acid sequences associated with functional structure. Each plasmid carried a flag tag. The constructions were: full length cPLA2 (1-750), cPLA2 (126-750), cPLA2 (406-750), cPLA2 (1-479), and cPLA2 (1-144).

Test [2] addresses cPLA2 (Homo sapiens, UniProt P47712, S505A). The settings on record: 293 T cells transfected with point mutant plasmid. Here is the method: as §1, §2, §3
Test [3] has as its system TNF-α/NF-κB signaling pathway. The test can be described thus: NF-κB beta-lactamase reporter gene assay in NF-κB-bla THP-1 cell line. It is filed as cell-based. The settings on record: THP-1 cells, drug overnight; for TNF-α-activated NF-κB reporter gene: then TNF-α 6 hours. Here is the method:
In vitro and in vivo screen of FDA-approved drug library. NF-κB-bla THP-1 cell line in which NF-κB beta-lactamase reporter gene was stably integrated, RAW 264.7 macrophages in which NF-κB luciferase reporter gene was transiently transfected, and TNF-tg:NF-κB-Luc double mutant reporter mice were employed to screen the drug library. Screening FDA approved drugs in vitro. NF-κB-bla THP-1 cell line ([…], Invitrogen) was cultured in 96-well plates and FDA approved drugs (10 μM, L1300, Selleckchem) were added and cultured overnight. Next day, […] Loading Kit with CCF2-AM ([…], Invitrogen) was used to detect the β-lactamase activity via SpectraMax i3x system (5025027A Molecular Devices) with excitation wavelength at 409 nm and emission wavelengths at 520 nm or 470 nm. This process was performed in triplicate. Subsequently, the drugs from first screening that could inhibit TNF-α induced NF-κB activity underwent further screening by NF-κB luciferase assay. After transfection with NF-κB luciferase reporter gene and Renilla plasmids for 8 hours, cells were treated with drugs (10 μM) overnight, followed by TNF-α (10 ng/ml) stimulation for 6 hours, then bioluminescence was measured by Dual-Luciferase® Reporter Assay kit (E1910, Promega). The data were analyzed by Graphpad Prism software (GraphPad Software, San Diego, Calif.).

For a further test, the system named is TNF-tg mice. As to the kind of experiment: hTNF-tg mouse model of inflammatory arthritis. The settings on record: for serum levels of IL-1β and IL-6: compared with the control group; for clinical scores of arthritis: oral daily from 8 weeks of age, 13 weeks, FFD 10 mg/kg, TFD 50 mg/kg; for therapeutic effects (swelling score): treatment started at average score of approximately eight points, FFD 0.4, 2, 10 mg/kg, TFD 2, 10, 50 mg/kg oral, 8 weeks; for swelling score once the treatment resumed: treatment stopped at 17-week and resumed at 19-week time point.

In a further test the test system is CD4+ T cells. As to the kind of experiment: Spleen CD4+ T cell differentiation in vitro and splenic T cell composition in vivo. It is filed as cell-based, mice. The method, then:
Spleen CD4^+T cell differentiation. Inducing spleen naive CD4^+T cell differentiation into T cell subsets was performed. Briefly, after preparing the splenic naïve CD4^+T cells from wild-type 8-12 week old C57BL/6 mice, the following cytokines were added to induce naive CD4^+T cell differentiation into T cell subsets: IL-2 (20 ng/mL), IL-12 (15 ng/mL), and anti-IL4 (5 μg/mL) for Thl; IL-2 (20 ng/mL), IL-4 (10 ng/mL), and anti-IFNγ (5 μg/mL) for Th2; IL-6 (20 ng/mL), TGFβ (3 ng/mL), anti-IFNγ (5 μg/mL), and anti-IL4 (5 μg/mL) for Th17; IL-2 (20 ng/mL), TGFβ (15 ng/mL), anti-IFNγ (5 μg/mL), and anti-IL4 (5 μg/mL) for Treg. […] Before collecting cells for fluorescence staining, 1 μL Golgi stop from Fixation/Permeabilization Solution Kit with BD GolgiPlug™ (555028,BD Biosciences) was added to each well and incubated in the plate for 4 hours. Cells were stained according to the kit specifications. For each T cell subtype, the combination of fluorescence dyes was as follows: FITC-CD4 (M1004502, Sungene) and Percp-cy5.5-IFNγ (45-7311-82, eBioscience) for Th1; FITC-CD4 and PE-IL4 (554389, BD pharmingen) for Th2; FITC-CD4 and PE-IL-17A (12-7177-81, eBioscience) for Th17; FITC-CD4, PE-CD25 (102008, Biolegend) and Alex-Fluo647-FoxP3 (51-5773-80, eBioscience) for Treg. Then the samples were analyzed at NYU core facilities using a FACS Calibur cell analyzer with CellQuest software. […] Frozen splenic tissue specimens from TNFα Tg mice treated with or without TFD or FFD were stained and analyzed dual immunofluorescence. All sections were permeabilized with 0.1% NP40 in PBS, and then blocked in 5% donkey serum for 30 min at RT, followed by incubated with anti-IFNg (Th1), anti-IL-4 (Th2), anti-IL17 (Th17) and anti-foxp3 (Treg) diluted in 5% donkey serum at 4° C. overnight. On the second day, after washed 3 times in PBS, the sections were incubated with Cy2-conjugated donkey anti-rat IgG for 30 min at RT. After wash, the sections were furthered stained with FITC conjugated anti-CD4 for I hour at RT. To determine the macrophage polarization, sections were double stained with anti-CD68 and iNOS (M1) or CD206 (M2). DAPI were used to stain the nuclei. The fluorescence intensity of cells was quantified by Image J software.

In another test the test system is TNF-α. As to the kind of experiment: qRT-PCR of TNF-α-induced IL-1β, IL-6 and Nos-2 mRNA in BMDMs. It is filed as cell-based, mice. The settings on record: TNF-α 10 ng/mL; FFD 1, 10 μM; TFD 0.1, 1 μM; 24 hours. The method, then: Primary bone marrow derived macrophages (BMDMs) extraction. BMDMs were isolated from C57BL/6 and TNF-tg mice. After mice were sacrificed by cervical dislocation, the tibia and femur were isolated and both ends of the bones were cut to open the medullary cavity. Bone marrow cells were collected by centrifuge at 13000 g for 90 seconds and seeded in 6-well plates. Prior to their use in experiments, M-CSF (10 ng/ml, 576406, Biolegend) was added for 6 days to the BMDM culture medium.
qRT-PCR. Total RNA was extracted by RNeasy plus mini kit (74106, QIAGEN) and cDNA was synthesized using SuperScript® Reverse Transcriptase (M314C, promega Corporation). SYBR® Green PCR Master Mix (4309155, Applied Biosystems) was used to perform quantitative real-time PCR (qRT-PCR) and the reaction was performed on a StepOnePlus™ real-time PCR Systems (Applied Biosystems). The mRNA expression level of target genes was calculated by ΔΔCT and fold changes of mRNA levels were normalized to GAPDH.

cPLA2 (Homo sapiens, UniProt P47712, S505A), sequence (P47712 whole entry S505A): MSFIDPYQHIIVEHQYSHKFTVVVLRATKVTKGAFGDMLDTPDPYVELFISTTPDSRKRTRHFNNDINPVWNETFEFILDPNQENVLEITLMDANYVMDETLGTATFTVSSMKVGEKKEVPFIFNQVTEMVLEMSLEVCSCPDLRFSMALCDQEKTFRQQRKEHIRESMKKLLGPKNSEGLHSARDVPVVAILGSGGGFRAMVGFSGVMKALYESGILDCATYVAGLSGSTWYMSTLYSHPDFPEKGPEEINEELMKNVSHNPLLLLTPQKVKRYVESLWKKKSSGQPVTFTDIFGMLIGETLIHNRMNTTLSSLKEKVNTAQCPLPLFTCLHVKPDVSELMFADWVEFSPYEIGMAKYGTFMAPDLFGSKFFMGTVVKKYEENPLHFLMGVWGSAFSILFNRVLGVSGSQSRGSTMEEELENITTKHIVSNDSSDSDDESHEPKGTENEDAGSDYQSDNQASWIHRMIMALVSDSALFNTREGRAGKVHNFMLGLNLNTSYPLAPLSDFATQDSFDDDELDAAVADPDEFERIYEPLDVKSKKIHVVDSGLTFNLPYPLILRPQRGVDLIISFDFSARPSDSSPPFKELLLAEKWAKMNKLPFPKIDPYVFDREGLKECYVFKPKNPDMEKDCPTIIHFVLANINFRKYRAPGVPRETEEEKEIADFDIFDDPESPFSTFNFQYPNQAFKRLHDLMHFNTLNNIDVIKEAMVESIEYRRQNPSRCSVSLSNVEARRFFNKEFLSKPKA
Method for TNF-tg mice: Six mice in each group. Swelling scores were assessed weekly in accordance with the scoring system offered by the company. The swelling scores were taken as the sum of the scores from digits, paws, wrists and ankles with the highest possible score for each mouse at 24. The score system is: 20 digits (0=normal, 0.2=one or more swollen joints), 4 paws (0=normal, 1=noticeable swollen, 2=severe swollen), 2 wrists (0=normal, 1=noticeable swollen, 2=severe swollen), and 2 ankles (0=normal, 2=noticeable swollen, 4=severe swollen). At the end of treatment and observation, mice were sacrificed for collection of sera, spleens and ankles.

Take `CC(C)(C(=O)O)c1ccc(C(O)CCCN2CCC(C(O)(c3ccccc3)c3ccccc3)CC2)cc1` (stereo not drawn) [fexofenadine]: on cPLA2 [1], the “DARTS protective effects on mutants lacking the CD2 domain, cPLA2 (1-479) and cPLA2 (1-144)” value was “did not show any protective effects”. The “DARTS protective effect on Ser-505 to Ala point mutant of cPLA2” value on cPLA2 [2] is given as “lost its protective effect”. Besides, the “AA activation of the NF-κB reporter gene” value in test [3] (then AA 6 hours) is on record as “did not constrain”. Besides, the “TNF-α-activated NF-κB reporter gene” value in test [3] was “inhibited”. Also, the “TNF-α-activated NF-κB reporter gene” value in test [3] (listed as FFD) is recorded as “inhibit”. In addition, the “clinical scores of arthritis, comparison with MTX” value in the test on TNF-tg mice (prevention, FFD 10 mg/kg vs MTX 2 mg/kg oral daily) is recorded as “more effective than MTX”. In addition, in the test on TNF-tg mice (prevention), the “serum levels of IL-1β and IL-6” value is on record as “significantly reduced”; the “clinical scores of arthritis” value is “significant reduction”. Further, in the test with TNF-tg mice, the “therapeutic effects (swelling score)” value is recorded as “effective therapeutic effects in a dose-dependent manner” and the “swelling score once the treatment resumed” value is given as “immediate reduction”. Besides, in the test with CD4+ T cells, the “differentiation of IFNγ-positive Th1 subpopulation” value is reported as “significantly suppressed”; the “differentiation of Th2, Th17 and regulatory T cells” value is reported as “negligible effects”. In the test on TNF-α, the “TNF-α-induced mRNA expressions of IL-1β, IL-6 and Nos-2” value is “dose-dependently inhibited”.
Turning to `CC(C)(C)c1ccc(C(O)CCCN2CCC(C(O)(c3ccccc3)c3ccccc3)CC2)cc1` (stereo not drawn) [terfenadine], in test [3], the “TNF-α-activated NF-κB reporter gene” value is reported as “inhibit”. In the test on TNF-tg mice (prevention), the “serum levels of IL-1β and IL-6” value is “significantly reduced”; the “clinical scores of arthritis” value is on record as “significant reduction”. In the test on TNF-tg mice, the “therapeutic effects (swelling score)” value was “effective therapeutic effects in a dose-dependent manner” and the “swelling score once the treatment resumed” value was “immediate reduction”. Also, in the test with CD4+ T cells, the “differentiation of IFNγ-positive Th1 subpopulation” value is on record as “significantly suppressed”; the “differentiation of Th2, Th17 and regulatory T cells” value was “negligible effects”. Besides, in the test with TNF-α, the “TNF-α-induced mRNA expressions of IL-1β, IL-6 and Nos-2” value was “dose-dependently inhibited”.

For the origin of these results see patent US20200022964A1, “COMPOSITIONS AND METHODS FOR TREATMENT OF INFLAMMATORY AUTOIMMUNE DISEASES” (New York University, priority 2018, published 2020).
